Molecules are shown by their SMILES. Where a name gives a salt, the structure may show the parent alone.

The record followed here is patent publication US20180065917A1, “IMMUNE CHECKPOINT INHIBITORS, COMPOSITIONS AND METHODS THEREOF” (Polaris Pharmaceuticals, Inc., priority 2016, published 2018).

The target in one data set is T1, PD-L1/PD-1 complex formation (Homo sapiens, UniProt Q9NZQ7).
T1 construct: purchased BPS Bioscience
T1 sequence (Q9NZQ7 19-239 limits assumed, one chain of several): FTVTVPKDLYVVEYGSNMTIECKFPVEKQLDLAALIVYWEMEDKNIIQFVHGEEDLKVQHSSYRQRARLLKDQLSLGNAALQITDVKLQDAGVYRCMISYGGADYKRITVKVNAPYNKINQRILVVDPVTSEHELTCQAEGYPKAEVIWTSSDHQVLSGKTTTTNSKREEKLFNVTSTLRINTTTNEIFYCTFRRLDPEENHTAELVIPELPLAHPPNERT
The data set can be described thus: PD-L1/PD-1 Interaction Assay (ELISA platform). Type of data set: binding. The following applies: human PD-1-Fc coated plates, PD-L1-Fc-biotin 0.1 μg/ml, compounds pre-incubated 2 hours. The method, then:
The ability of compounds to block PD-L1/PD-1 complex formation was evaluated using biochemical interaction assay based on the ELISA platform.
EIA/RIA high binding 96-well plates (Costar) were coated with human PD-1-Fc protein diluted in PBS to 0.5 μg/ml overnight at 4° C. The PD-1-Fc coated plates were washed in PBST and blocked in blocking buffer (2% BSA in PBST). Serially diluted compounds were pre-incubated with PD-L1-Fc-biotin (0.1 μg/ml final) for 2 hours on a shaker at room temperature. The PD-1-Fc coated plates were washed with PBST and solutions containing PD-L1 and compounds were added to the plates. The PD-1-Fc coated plates were incubated with PD-L1 and compound solution for 2 hours on a shaker at room temperature. After the incubation unbound PD-L1 was washed away with PBST and plates were incubated with the blocking buffer for 10 minutes. The bound PD-L1-Fc-biotin was detected with streptavidin-HRP and TMB substrate. The plates were read at OD450 nm in a plate reader (i3 from Molecular Devices) and percentages of inhibition of PD-L1/PD-1 complex formation were calculated.
PD-1-Fc protein was made at Polaris and PD-L1-Fc was purchased from BPS Bioscience.
One may read the IC50 as the concentration that gives 50% inhibition. High values mean a need for much substance, low ones inhibition by little substance. `COc1cc(CN2CCCC[C@H]2C(=O)O)ccc1OCc1cccc(-c2cccc(COc3ccc(CN4CCCC[C@H]4C(=O)O)cc3OC)c2C)c1C` [Example 20, (2S,2′S)-1,1′-(((((2,2′-Dimethyl-[1,1′-biphenyl]-3,3′-diyl)bis(methylene))bis(oxy))bis(3-methoxy-4,1-phenylene))bis(methylene))bis(piperidine-2-carboxylic acid)] returned a 50% inhibitory concentration (IC50) of 1010 to 30000 nM. Compound `Cc1c(COc2ccc(CN3C[C@@H](O)C[C@H]3C(=O)O)cc2Br)cccc1-c1cccc(COc2ccc(CN3C[C@@H](O)C[C@H]3C(=O)O)cc2Br)c1C` [Example 7, (2S,2'S,4S,4′S)-1,1′-(((((2,2′-Dimethyl-[1,1′-biphenyl]-3,3′-diyl)bis(methylene))bis(oxy))bis(3-bromo-4,1-phenylene))bis(methylene))bis(4-hydroxypyrrolidine-2-carboxylic acid)] yielded an IC50 of 0.1 to 10 nM.

System in the next data set: not given
Experiment: not given
Conditions: not given
What is called melting point is the temperature, or range, at which the solid turns liquid. `Cc1c(COc2ccc(CN[C@H](C)C(=O)O)cc2Br)cccc1-c1cccc(COc2ccc(CN[C@H](C)C(=O)O)cc2Br)c1C` (as salt: trifluoroacetic acid salt) [Example 16, (2R,2′R)-2,2′-((((((2,2′-Dimethyl-[1,1′-biphenyl]-3,3′-diyl)bis(methylene))bis(oxy))bis(3-bromo-4,1-phenylene))bis(methylene))bis(azanediyl))dipropionic acid di-trifluoroacetic acid salt] displayed a melting point of 186 to 190 °C. Compound `Cc1c(COc2ccc(CN(CCO)CCO)cc2Br)cccc1-c1cccc(COc2ccc(CN(CCO)CCO)cc2Br)c1C` (as salt: trifluoroacetic acid salt) [Example 31, 2,2′,2″,2′″-((((((2,2′-Dimethyl-[1,1′-biphenyl]-3,3′-diyl)bis(methylene))bis(oxy))bis(3-bromo-4,1-phenylene))bis(methylene))bis(azanetriyl))tetrakis(ethan-1-ol) di-trifluoroacetic acid salt] had a melting point of 118 to 122 °C.

In turn, `COc1cc(CN2CCCC[C@H]2C(=O)O)ccc1OCc1cccc(-c2cccc(COc3ccc(CN4CCCC[C@H]4C(=O)O)cc3OC)c2C)c1C` [Example 20, (2S,2′S)-1,1′-(((((2,2′-Dimethyl-[1,1′-biphenyl]-3,3′-diyl)bis(methylene))bis(oxy))bis(3-methoxy-4,1-phenylene))bis(methylene))bis(piperidine-2-carboxylic acid)] gave a melting point of 192 to 196 °C. Take `CCc1cc(CN2CCCC[C@H]2C(=O)O)ccc1OCc1cccc(-c2cccc(COc3ccc(CN4CCCC[C@H]4C(=O)O)cc3CC)c2C)c1C` (as salt: trifluoroacetic acid salt) [Example 27, (2S,2′S)-1,1′-(((((2,2′-Dimethyl-[1,1′-biphenyl]-3,3′-diyl)bis(methylene))bis(oxy))bis(3-ethyl-4,1-phenylene))bis(methylene))bis(piperidine-2-carboxylic acid) di-trifluoroacetic acid salt]: the melting point fell in the range of 131 to 135 °C. Consider `Cc1c(COc2ccc(CN3C[C@@H](O)C[C@H]3C(=O)O)cc2Br)cccc1-c1cccc(COc2ccc(CN3C[C@@H](O)C[C@H]3C(=O)O)cc2Br)c1C` [Example 7, (2S,2'S,4S,4′S)-1,1′-(((((2,2′-Dimethyl-[1,1′-biphenyl]-3,3′-diyl)bis(methylene))bis(oxy))bis(3-bromo-4,1-phenylene))bis(methylene))bis(4-hydroxypyrrolidine-2-carboxylic acid)], for which the melting point lay in the range of 260 to 264 °C. Still for that read-out and setting: the result for `Cc1c(COc2ccc(CN[C@@H](C)C(=O)O)cc2Br)cccc1-c1cccc(COc2ccc(CN[C@@H](C)C(=O)O)cc2Br)c1C` (as salt: trifluoroacetic acid salt) [Example 15, (2S,2′S)-2,2′-((((((2,2′-Dimethyl-[1,1′-biphenyl]-3,3′-diyl)bis(methylene))bis(oxy))bis(3-bromo-4,1-phenylene))bis(methylene))bis(azanediyl))dipropionic acid di-trifluoroacetic acid salt] reads 243 to 247 °C; that for `Cc1c(COc2ccc(CNC(C)(C)C(=O)O)cc2Br)cccc1-c1cccc(COc2ccc(CNC(C)(C)C(=O)O)cc2Br)c1C` (as salt: trifluoroacetic acid salt) [Example 14, 2,2′-((((((2,2′-Dimethyl-[1,1′-biphenyl]-3,3′-diyl)bis(methylene))bis(oxy))bis(3-bromo-4,1-phenylene))bis(methylene))bis(azanediyl))bis(2-methylpropanoic acid) di-trifluoroacetic acid salt], 230 to 234 °C; that for `Cc1c(COc2ccc(CN[C@@H](C(=O)O)[C@H](C)O)cc2Br)cccc1-c1cccc(COc2ccc(CN[C@@H](C(=O)O)[C@H](C)O)cc2Br)c1C` (as salt: trifluoroacetic acid salt) [Example 18, (2R,2′R,3S,3′S)-2,2′-((((((2,2′-Dimethyl-[1,1′-biphenyl]-3,3′-diyl)bis(methylene))bis(oxy))bis(3-bromo-4,1-phenylene))bis(methylene))bis(azanediyl))bis(3-hydroxybutanoic acid) di-trifluoroacetic acid salt], 227 to 231 °C.

The compound `Cc1c(COc2ccc(CNC(CO)CO)cc2Br)cccc1-c1cccc(COc2ccc(CNC(CO)CO)cc2Br)c1C` (as salt: trifluoroacetic acid salt) [Example 32, 2,2′-((((((2,2′-Dimethyl-[1,1′-biphenyl]-3,3′-diyl)bis(methylene))bis(oxy))bis(3-bromo-4,1-phenylene))bis(methylene))bis(azanediyl))bis(propane-1,3-diol) di-trifluoroacetic acid salt] came in with a melting point of 148 to 152 °C.

With `Cc1c(COc2ccc(CNC(C)(CO)CO)cc2Br)cccc1-c1cccc(COc2ccc(CNC(C)(CO)CO)cc2Br)c1C` (as salt: trifluoroacetic acid salt) [Example 33, 2,2′-((((((2,2′-Dimethyl-[1,1′-biphenyl]-3,3′-diyl)bis(methylene))bis(oxy))bis(3-bromo-4,1-phenylene))bis(methylene))bis(azanediyl))bis(2-methylpropane-1,3-diol) di-trifluoroacetic acid salt], the melting point lay in the range of 134 to 138 °C. On to `C#Cc1cc(CN2CCCC[C@H]2C(=O)O)ccc1OCc1cccc(-c2cccc(COc3ccc(CN4CCCC[C@H]4C(=O)O)cc3C#C)c2C)c1C` (as salt: trifluoroacetic acid salt) [Example 26, (2S,2′S)-1,1′-(((((2,2′-Dimethyl-[1,1′-biphenyl]-3,3′-diyl)bis(methylene))bis(oxy))bis(3-ethynyl-4,1-phenylene))bis(methylene))bis(piperidine-2-carboxylic acid) di-trifluoroacetic acid salt], for which the melting point was 175 °C (dec.). For `CSc1cc(CN2CCCC[C@H]2C(=O)O)ccc1OCc1cccc(-c2cccc(COc3ccc(CN4CCCC[C@H]4C(=O)O)cc3SC)c2C)c1C` (as salt: trifluoroacetic acid salt) [Example 28, (2S,2′S)-1,1′-(((((2,2′-Dimethyl-[1,1′-biphenyl]-3,3′-diyl)bis(methylene))bis(oxy))bis(3-(methylthio)-4,1-phenylene))bis(methylene))bis(piperidine-2-carboxylic acid) di-trifluoroacetic acid salt], the melting point fell in the range of 134 to 138 °C. On to `Cc1c(COc2ccc(CN3CCCC[C@H]3C(=O)O)cc2C#N)cccc1-c1cccc(COc2ccc(CN3CCCC[C@H]3C(=O)O)cc2C#N)c1C` (as salt: trifluoroacetic acid salt) [Example 34, (2S,2′S)-1,1′-(((((2,2′-dimethyl-[1,1′-biphenyl]-3,3′-diyl)bis(methylene))bis(oxy))bis(3-cyano-4,1-phenylene))bis(methylene))bis(piperidine-2-carboxylic acid) di-trifluoroacetic acid salt], for which the melting point lay within 196 to 200 °C. `Cc1c(COc2ccc(CN(CC(=O)O)CC(=O)O)cc2Br)cccc1-c1cccc(COc2ccc(CN(CC(=O)O)CC(=O)O)cc2Br)c1C` (as salt: trifluoroacetic acid salt) [Example 30, 2,2′,2″,2′″-((((((2,2′-Dimethyl-[1,1′-biphenyl]-3,3′-diyl)bis(methylene))bis(oxy))bis(3-bromo-4,1-phenylene))bis(methylene))bis(azanetriyl))tetraacetic acid di-trifluoroacetic acid salt]: the melting point was in the range of 223 to 227 °C. Take `Cc1c(COc2ccc(CN3CCCC[C@H]3C(=O)O)cc2C(F)F)cccc1-c1cccc(COc2ccc(CN3CCCC[C@H]3C(=O)O)cc2C(F)F)c1C` (as salt: trifluoroacetic acid salt) [Example 29, (2S,2′S)-1,1′-(((((2,2′-Dimethyl-[1,1′-biphenyl]-3,3′-diyl)bis(methylene))bis(oxy))bis(3-(difluoromethyl)-4,1-phenylene))bis(methylene))bis(piperidine-2-carboxylic acid) di-trifluoroacetic acid salt]: the melting point lay within 142 to 146 °C. In turn, `Cc1c(COc2ccc(CNCCO)cc2Br)cccc1-c1cccc(COc2ccc(CNCCO)cc2Br)c1C` (as salt: trifluoroacetic acid salt) [Example 5, 2,2′-((((((2,2′-Dimethyl-[1,1′-biphenyl]-3,3′-diyl)bis(methylene))bis(oxy))bis(3-bromo-4,1-phenylene))bis(methylene))bis(azanediyl))bis(ethan-1-ol) di-trifluoroacetic acid salt] gave a melting point of 136 to 140 °C.

In the case of `Cc1c(COc2ccc(CN[C@H](CO)C(=O)O)cc2Br)cccc1-c1cccc(COc2ccc(CN[C@H](CO)C(=O)O)cc2Br)c1C` (as salt: trifluoroacetic acid salt) [Example 17, (2R,2′R)-2,2′-((((((2,2′-Dimethyl-[1,1′-biphenyl]-3,3′-diyl)bis(methylene))bis(oxy))bis(3-bromo-4,1-phenylene))bis(methylene))bis(azanediyl))bis(3-hydroxypropanoic acid) di-trifluoroacetic acid salt], the melting point is 156 to 160 °C.
